How the values were obtained:
Assay type in all cases: cell-based
Leishmania donovani [1] = test: Intramacrophage Leishmania donovani assay (Assay 1), average number of amastigotes per cell (potency readout); details: THP-1, 96 h, amastigotes in PMA-differentiated THP-1 macrophages, 96 h incubation, read-out: pEC50 value against Leishmania donovani (converted)
Protocol: Assay 1. Intramacrophage Leishmania donovani Assay
The intramacrophage Leishmania assay was performed using a modified version of the method described in De Rycker et al. (Antimicrob Agents Chemother. 2013 July; 57(7):2913-22. Comparison of a high-throughput high-content intracellular Leishmania donovani assay with an axenic amastigote assay. De Rycker M, Hallyburton I, Thomas J, Campbell L, Wyllie S, Joshi D, Cameron S, Gilbert I H, Wyatt P G, Frearson J A, Fairlamb A H, Gray D W.). Procedure: 350 nl of compound was pre-dispensed into 384 well sterile intermediary plates. For single point screening, amphotericin B was added to all wells of column 24 as a positive control (final concentration 2 μM) and DMSO to column 23. For potency determinations, ten-point, one in three dilution curves were created with the highest concentration being 50 μM and on each plate a control curve of amphotericin B was included. Controls were as follows: columns 11 and 12: DMSO, columns 23 and 24: amphotericin B (final concentration 2 μM). To the intermediary plates, 35 μl of THP-1 media was added and plates were shaken for >5 min to ensure complete mixing. THP-1 cells (8,000 per well, 50 μl) were plated into black clear-bottom 384 well plates (Corning) in presence of 20 nM PMA. After 20 min at RT, the plates were incubated at 37° C. under 5% CO2 in a humidified incubator for 75 h. The cells were then washed with […] sterile phosphate buffered saline (PBS) supplemented with 1 mM CaCl2, 0.5 mM MgCl2, 0.1% (w/v) bovine serum albumin (PBS-A) and amastigotes were added to all wells at a multiplicity of infection of 5 (40,000 amastigotes per well). After 40 min at RT, plates were returned to the incubator. Amastigotes were incubated in the presence of THP-1 macrophages for 16 h. Any remaining extracellular amastigotes were subsequently removed with an overflow wash of 1 mL PBS-A per well (wash buffer is being aspirated from the top of the well as it is being dispensed) followed by addition of 25 μl of the compound pre-dilutions using a Fluidx Ipette-pro pipetting station. The final dilution of each compound was 200-fold. Plates were incubated for 96 h and then washed (250 μl PBS-A) and fixed (4% (v/v) formaldehyde-PBS, 30 min, RT). After fixation, the wells were washed with 250 μl PBS, stained (10 μg/mL DAPI, 0.4 μg mL-1 HCS Cellmask Deep Red in PBS+0.1% (v/v) Triton X-100, 30 min, RT) and washed with 250 μl PBS. Finally, PBS+0.05% (v/v) thimerosal was added to the wells, the plates were sealed and imaged on a high-content microscope (GE IN Cell 2000) using a 10× objective. Image analysis was carried out with GE IN Cell Analyzer 1000 Workstation using the “Multi Target Analysis” module. Settings for segmentation were as follows: nuclei: minimum area: 142.384 μm2, sensitivity: 81, method: top-hat; cells: characteristic area: 2500 μm2, sensitivity: 60, method: multiscale top-hat; organelles (amastigotes): granule size 1-3, 3 scales, sensitivity: 90, detection in entire cell. For each well, i) THP-1 cell count (cytotoxicity readout) and ii) average number of amastigotes per cell (potency readout) were calculated, both in terms of pEC50 values.

Leishmania donovani [2] = test: Leishmania donovani intracellular assay (Assay 5); details: THP-1, 96 h, eGFP amastigotes in THP-1 cells, 96 h incubation, read-out: pEC50 value against Leishmania donovani (converted)
Protocol: (§1) Assay 5. Leishmania donovani Intracellular Assay
(§2) Compounds were dispensed into black 384-well assay plates (Greiner) by acoustic dispensing (LabCyte ECHO). For potency determinations, eleven-point, one in three dilution curves were generated, with a top concentration of 50 μM. THP-1 human monocytes cells were dispensed in T225 tissue culture flasks and differentiated using 30 nM of PMA, after 24 hours they were infected overnight using Leishmania donovani expressing Green Fluorescent Protein (eGFP) amastigotes in the same T225 tissue culture flasks at a multiplicity of infection of 10. Next, any remaining free amastigotes were washed away with PBS and the infected THP-1 cells were harvested by trypsinisation. The infected cells were then plated into 384-well plates containing the compounds to be tested, at 3000 cells per well in RPMI media with 2% FBS and 25 mM Sodium bicarbonate. After 96 h incubation at 37° C. in presence of 5% CO2, the plates were fixed with 4% formaldehyde for 30 minutes, washed with PBS and stained with 0.1 mg/mL of DAPI for 30 minutes and washed again with PBS. The plates were imaged on a Perkin Elmer Opera high-content imaging system using a 20× air objective with two expositions, one for DAPI stain and other for eGFP. Images were analysed using the Acapella building blocks system (Perkin Elmer). The image analysis algorithm first identified the THP-1 nuclei followed by demarcation of the cytoplasm and identification of intracellular amastigotes. This algorithm reported mean number of parasites per THP-1 cell, the percentage of infected THP-1 cells and the total number of THP-1 cells.

THP-1 cells = test: Leishmania donovani intracellular assay (Assay 5), THP-1 cytotoxicity; details: human, 96 h incubation, read-out: cytotoxicity against THP-1 cells, pEC50 (converted)
Protocol: as §1, §2

Compound | EC50 (Leishmania donovani [1]) [µM] | EC50 (Leishmania donovani [2]) [µM] | EC50 at 96 h (THP-1 cells) [µM]
CC(C)c1cnc2nc(-c3cc(NC(=O)N4CCCC4)ccc3F)ccn12 [Example 18, N-(4-fluoro-3-(3-isopropylimidazo[1,2-a]pyrimidin-7-yl)phenyl)pyrrolidine-1-carboxamide] | 0.251 to 10 | 0.126 to 10 | –
Cc1cn2c(N3CCOCC3)cnc2nc1-c1cc(NC(=O)N2CCCC2)ccc1F [Example 15, N-(4-fluoro-3-(6-methyl-3-morpholinoimidazo[1,2-a]pyrimidin-7-yl)phenyl)pyrrolidine-1-carboxamide] | 12.6 to 20 | 12.6 to 39.8 | –
CN1CCN(c2cnc3nc(-c4cc(NC(=O)N5CCCC5)ccc4F)ccn23)CC1 [Example 36, N-(4-fluoro-3-(3-(4-methylpiperazin-1-yl)imidazo[1,2-a]pyrimidin-7-yl)phenyl)pyrrolidine-1-carboxamide] | 12.6 to 20 | 0.126 to 10 | –
O=C(Nc1ccc(F)c(-c2ccn3c(CN4CCOCC4)cnc3n2)c1)N1CCCC1 [Example 20, N-(4-fluoro-3-(3-(morpholinomethyl)imidazo[1,2-a]pyrimidin-7-yl)phenyl)pyrrolidine-1-carboxamide] | 12.6 to 20 | 0.126 to 10 | –
O=C(Nc1ccc(F)c(-c2ccn3c(-c4ccc(CN5CCOCC5)cc4)cnc3n2)c1)N1CCCC1 [Example 21, N-(4-fluoro-3-(3-(4-(morpholinomethyl)phenyl)imidazo[1,2-a]pyrimidin-7-yl)phenyl)pyrrolidine-1-carboxamide] | 0.251 to 10 | 0.126 to 10 | –
O=C(Nc1ccc(F)c(-c2ccn3ccnc3n2)c1)N1CCCC1 [Example 16, N-(4-fluoro-3-(imidazo[1,2-a]pyrimidin-7-yl)phenyl)pyrrolidine-1-carboxamide] | 12.6 to 20 | 12.6 to 39.8 | 12.6 to 50.1
Cc1nc(C)c(C(=O)Nc2ccc(F)c(-c3ccn4c(N5CCOCC5)cnc4n3)c2)o1 [Example 39, N-(4-fluoro-3-(3-morpholinoimidazo[1,2-a]pyrimidin-7-yl)phenyl)-2,4-dimethyloxazole-5-carboxamide] | 0.251 to 10 | 0.126 to 10 | –
CC1(C)COCCN1c1cnc2nc(-c3cc(NC(=O)N4CCCC4)ccc3F)ccn12 [Example 42, N-(3-(3-(3,3-dimethylmorpholino)imidazo[1,2-a]pyrimidin-7-yl)-4-fluorophenyl)pyrrolidine-1-carboxamide] | 0.251 to 10 | 0.126 to 10 | –
C[C@H]1CN(c2cnc3nc(-c4cc(NC(=O)N5CCCC5)ccc4F)ccn23)CCO1 [Example 40, (S)—N-(4-fluoro-3-(3-(2-methylmorpholino)imidazo[1,2-a]pyrimidin-7-yl)phenyl)pyrrolidine-1-carboxamide] | 0.251 to 10 | 0.126 to 10 | –
CC1(C)CN(c2cnc3nc(-c4cc(NC(=O)N5CCCC5)ccc4F)ccn23)CCO1 [Example 41, N-(3-(3-(2,2-dimethylmorpholino)imidazo[1,2-a]pyrimidin-7-yl)-4-fluorophenyl)pyrrolidine-1-carboxamide] | 0.251 to 10 | 0.126 to 10 | –
O=C(Nc1ccc(F)c(-c2ccn3c(N4CCOCC4)cnc3n2)c1)N1CC(F)(F)C1 [Example 24, 3,3-difluoro-N-(4-fluoro-3-(3-morpholinoimidazo[1,2-a]pyrimidin-7-yl)phenyl)azetidine-1-carboxamide] | 0.251 to 10 | 0.126 to 10 | –
C[C@@H]1CCN(C(=O)Nc2ccc(F)c(-c3ccn4c(N5CCOCC5)cnc4n3)c2)C1 [Example 34] | 0.251 to 10 | 0.126 to 10 | –
CN1CCOCC1c1cnc2nc(-c3cc(NC(=O)N4CCCC4)ccc3F)ccn12 (centres unmarked) [Example 43, N-(4-fluoro-3-(3-(4-methylmorpholin-3-yl)imidazo[1,2-a]pyrimidin-7-yl)phenyl)pyrrolidine-1-carboxamide] | 0.251 to 10 | 0.126 to 10 | –
CC(=O)N1CCN(c2cnc3nc(-c4cc(NC(=O)N5CCCC5)ccc4F)ccn23)CC1 [Example 48, N-(3-(3-(4-acetylpiperazin-1-yl)imidazo[1,2-a]pyrimidin-7-yl)-4-fluorophenyl)pyrrolidine-1-carboxamide] | > 50.1 | 0.126 to 10 | –
CC1CN(c2cnc3nc(-c4cc(NC(=O)N5CCCC5)ccc4F)ccn23)CCO1 (centres unmarked) [Example 29, N-(4-fluoro-3-(3-(2-methylmorpholino)imidazo[1,2-a]pyrimidin-7-yl)phenyl)pyrrolidine-1-carboxamide] | 0.251 to 10 | 0.126 to 10 | –
CC(C)(C)OC(=O)N1CCOCC1c1cnc2nc(-c3cc(NC(=O)N4CCCC4)ccc3F)ccn12 (centres unmarked) [Example 44, tert-butyl 3-(7-(2-fluoro-5-(pyrrolidine-1-carboxamido)phenyl)imidazo[1,2-a]pyrimidin-3-yl)morpholine-4-carboxylate] | 0.251 to 10 | 0.126 to 10 | –
O=C(Nc1cc(-c2ccn3c(N4CCOCC4)cnc3n2)c(F)cc1F)N1CCCC1 [Example 46, N-(2,4-difluoro-5-(3-morpholinoimidazo[1,2-a]pyrimidin-7-yl)phenyl)pyrrolidine-1-carboxamide] | > 50.1 | 0.126 to 10 | –
C[C@@H]1CN(c2cnc3nc(-c4cc(NC(=O)N5CCCC5)ccc4F)ccn23)C[C@H](C)O1 [Example 30, N-(3-(3-((2S,6R)-2,6-dimethylmorpholino)imidazo[1,2-a]pyrimidin-7-yl)-4-fluorophenyl)pyrrolidine-1-carboxamide] | 0.251 to 10 | 0.126 to 10 | –
O=C(Nc1ccc(F)c(-c2ccn3c(N4CCNCC4)cnc3n2)c1)N1CCCC1 [Example 32, N-(4-fluoro-3-(3-(piperazin-1-yl)imidazo[1,2-a]pyrimidin-7-yl)phenyl)pyrrolidine-1-carboxamide] | > 50.1 | 12.6 to 39.8 | –
Cc1cc(-c2cc(NC(=O)N3CCCC3)ccc2F)nc2ncc(N3CCOCC3)n12 [Example 12, N-(4-fluoro-3-(5-methyl-3-morpholinoimidazo[1,2-a]pyrimidin-7-yl)phenyl)pyrrolidine-1-carboxamide] | 0.251 to 10 | 0.126 to 10 | –
C[C@@H]1CCCN1C(=O)Nc1ccc(F)c(-c2ccn3c(N4CCOCC4)cnc3n2)c1 [Example 33, N-(4-fluoro-3-(3-morpholinoimidazo[1,2-a]pyrimidin-7-yl)phenyl)-2-methylpyrrolidine-1-carboxamide] | 0.251 to 10 | 0.126 to 10 | –
O=C(Nc1cccc(-c2ccn3c(N4CCOCC4)cnc3n2)c1)N1CCCC1 [Example 1, N-(3-(3-morpholinoimidazo[1,2-a]pyrimidin-7-yl)phenyl)pyrrolidine-1-carboxamide] | 0.251 to 10 | 0.126 to 10 | –
O=C(Nc1ccc(F)c(-c2cc(C(=O)N3CCCC3)n3ccnc3n2)c1)N1CCCC1 [Example 50, N-(4-fluoro-3-(5-(pyrrolidine-1-carbonyl)imidazo[1,2-a]pyrimidin-7-yl)phenyl)pyrrolidine-1-carboxamide] | > 50.1 | 12.6 to 39.8 | –

From US10479792B2, “Compounds” (GlaxoSmithKline Intellectual Property Development Limited, priority 2015, dated 2019)
